Results published in patent US20260184700A1, “PDK1 REGULATORY COMPOUND AND COMPOSITION CONTAINING THE SAME” (PROVIBIO CO., LTD., priority 2024, published 2026).

Assays:
[1] = test system: Human Melanoma cancer cell, Malme-3M; experiment: Relative cell viability, CCK-8, Malme-3M; assay type: cell-based; settings: 48 hours
Procedure: Human-derived breast cancer cell line MCF-7, human-derived lung cancer cell line A549, human-derived colorectal cancer cell line HCT-116, human pancreatic cancer cell line AsPC-1, glioblastoma cell line A172, and melanoma cell line Malme-3M were obtained from the Korean Cell Bank. gastric cancer cell line SNU-719, and bladder cancer cell line T24 were cultured in RPMI-1640 medium containing 10% FBS.
Following stabilization, the cells were harvested using Trypsin-EDTA treatment, centrifuged at 1,200 rpm for 3 minutes, the supernatant was removed, and the cells were resuspended in the same medium. They were then seeded into a 96-well plate (Costar 96-well cell culture plate, Corning) at 100 μL per well, and the conditions were adjusted as indicated in Table 5.
The cells were cultured in a 5% CO2 incubator at 37° C. for 24 hours, and after stabilization of the cells, each plate was washed with 200 μL of PBS per well and treated with 50 μL of culture medium per well.
After that, 10 μL of CCK-8 was added to each well, and the plate was incubated again at 37° C. in a 5% CO2 incubator for 2 hours.
In other words, when the survival rate of untreated cells (DMSO) is set at 100%, the relative cell survival rate in each group treated with the drug at different concentrations is indicated.

[2] = test system: HCT-116 colon cancer cell lines; experiment: Invasion Assay using Matrigel, HCT-116; assay type: cell-based, human; settings: HCT-116, Matrigel invasion, 24 hours treatment
Procedure: To evaluate the metastasis inhibitory efficacy of the compounds of the present invention on HCT-116 colon cancer cell lines, an Invasion Assay using Matrigel was performed to assess the cells' invasion ability.
First, Matrigel was thawed on ice in RPMI-1640 medium without FBS, then diluted with DMEM at a ratio of 1:20.
The diluted Matrigel mixture was applied to the upper chamber at 100 μl per well, and 750 μl of RPMI-1640 without FBS was added to the lower chamber.
The plates were then incubated at 37° C. for 1 hour to allow the Matrigel to solidify.
After coating, the Matrigel mixture in the upper chamber was removed using a pipette, and the chamber was washed with RPMI without FBS.
Human-derived colorectal cancer cell line HCT-116, obtained from the Korean Cell Bank, was cultured in RPMI-1640 medium containing 10% FBS.
Following stabilization, the cells were harvested using Trypsin-EDTA treatment, centrifuged at 1,200 rpm for 3 minutes, the supernatant was removed, and the cells were resuspended in the same medium, the medium in the lower chamber was replaced with 750 μl of RPMI-1640 supplemented with 10% FBS, and the cells were seeded into the upper chamber at a density of 5×10^4 cells/well.
The cells were cultured for 24 hours after attachment, and then the compounds according to the present invention (G078, G085, G086, G088, G089, PBK-2024-010, PBK-2025-010, PBK-2025-013, PBK-2025-016) and the control substance DMSO were diluted and added to the upper chamber after removing the medium.
Additionally, the medium in the lower chamber was replaced with fresh RPMI-1640 containing FBS, and the culture was continued.
After an additional 24 hours, the medium was removed, and 1 ml of methanol was added for 10 minutes to fix the cells.
Subsequently, 1 ml of Hematoxylin was added and reacted for 5 minutes, followed by 1 ml of Eosin, which was reacted for 30 seconds. The sample was then washed with distilled water (DW).
After staining was complete, any remaining cells in the upper chamber were removed. Finally, the infiltrated cells were observed under a microscope, photographed, and the degree of infiltration was analyzed.

[3] = test system: bleomycin-treated Balb/c mice; experiment: Bleomycin-induced pulmonary fibrosis animal model; assay type: in vivo, mouse; settings: bleomycin mice lung, vs BLM-treated group
Text: To evaluate the therapeutic efficacy of the compound according to the present invention against pulmonary fibrosis, an animal model of pulmonary fibrosis induced by bleomycin intratracheal administration was established.
For this purpose, 8-week-old male Balb/c mice were subjected to general anesthesia using an inhalation anesthetic (2-3% isoflurane in oxygen), followed by disinfection of the neck region, skin incision, and exposure of the trachea.
Bleomycin (Sigma-Aldrich, USA) was directly administered into the trachea at a concentration of 5 mg/kg in a solution of 100 μL.
Two days prior to Bleomycin administration, the compound of the present invention or the comparative drug was administered intraperitoneally at the specified concentration and dose, and the administration was continued once daily for a total of 14 days.
The experimental groups included Normal, Bleomycin alone (BLM), and BLM plus the compound of the present invention (BLM+GO88, 0.2 mg/kg).
Ten days later, the mice were euthanized humanely using carbon dioxide gas, the trachea was incised, and PBS was injected into the trachea to remove blood from the lungs.
The lung tissue washed with PBS was excised, fixed in 4% paraformaldehyde solution for 24 hours, and then paraffin blocks and tissue sections were prepared. The prepared sections were subjected to pathological analysis using H & E, Masson's trichrome, and Sirius red staining.
Additionally, immunohistochemical (IHC) staining was performed for α-SMA (α-smooth muscle actin), an indicator of lung fibroblast activation.

[4] = test system: Collagen I in human lung fibroblasts MRC-5; experiment: TGF-β-induced Collagen I expression in MRC-5 cells, Western blot; assay type: cell-based; settings: MRC-5, TGF-β (5 ng/ml), GO88 0.5 μM and 1 μM, 24 hours
Procedure: To confirm that the compound of the present invention directly acts on fibrosis-related mechanisms, in vitro experiments were performed using human lung fibroblasts MRC-5 cell lines (Korea Cell Bank).
First, MRC-5 cells were seeded at 5×10^3 cells per well in a 6-well plate and stabilized for 24 hours.
Subsequently, experimental groups were established, including a control group, a group treated with TGF-β (5 ng/ml) alone, and groups treated with TGF-β and the compound GO88 from the present invention at concentrations of 0.5 μM and 1 μM, respectively.
After treating each group with the drugs for 24 hours, the cell medium was removed, and the cells were washed twice with cold PBS. Then, RIPA lysis buffer containing phosphatase inhibitor and protease inhibitor was added to each group to extract proteins.
The extracted proteins were incubated at 4° C. for 30 minutes, then centrifuged at 13,000 rpm for 15 minutes, and the supernatant was collected. The total protein concentration was measured using the BCA protein quantification method.
Subsequently, the proteins were separated by SDS-PAGE, transferred to a PVDF membrane, and Western blot analysis was performed.
The expression levels of Collagen I, a marker related to pulmonary fibrosis, were confirmed, with GAPDH used as an internal control.

Row | SMILES | Relative cell viability (%) ([1]; 1 μM) | Relative cell viability (%) ([1]; 10 μM) | Relative cell viability (%) ([1]; 30 μM) | Relative cell viability (%) ([1]; 50 μM) | number of infiltrated cells [2] | collagen deposition (Masson's trichrome and Sirius red staining) [3] | expression of α-SMA (IHC) [3] | protein expression of Collagen I [4]
1 | CC1(C)CN(CCCCCCCCCCCCC(=O)Nc2nc(N)c3[nH]cnc3n2)CCO1 [Compound 11, 12-[4-(2,2-dimethylmorpholin-4-yl)]dodecyl-N-(6-aminopurine-2-yl)carboxamide] | 44.06% | 37.40% | 36.80% | 38.87% | reduction in the number of infiltrated cells |  |  | 
2 | Nc1ncccc1C(=O)NCCCCCCCCCCCCN1CCNCC1 [Compound 14, 2-Amino-N-(12-(piperazin-1-yl)dodecyl)nicotinamide] |  |  |  |  |  | significantly reduced | significantly suppressed | inhibited in a concentration-dependent manner
